From patent US20080081826A1, “SYSTEM FOR EFFECTING WEIGHT LOSS” (priority 2006, published 2008)

Tests used:
[1] = Clinical weight loss studies (historical) in overweight or obese patients, 12 or 24 weeks; format: in vivo, human patients; settings: no meal replacement
Method: To conduct the studies, patients who were diagnosed as overweight or obese were chosen for clinical trials to assess weight loss as a function of prescribed meal replacements or a weight loss agent (sibutramine). Co-administration of both a weight loss agent and meal replacement was also tested.
All patients received lifestyle modification training of either a moderate (data Groups 1-9, 11, and 12) or intensive (data Group 10) character which included a patient's participation in record keeping, professional consultation, and exercise in addition to the dietary protocol. Patients placed on a “Moderate” lifestyle management program were given a diet sheet with instructions for a defined intake of daily calories ranging from 800-1600 kcal, or a 600 kcal deficit diet, with or without exercise and routine visits with the Primary Care Provider to reinforce diet and behavior modification, but relying primarily on patient self-monitoring. Patients placed on an “Intensive” lifestyle management program were given a diet sheet with a defined intake of daily calories ranging from 800-1600 kcal, or a 600 kcal deficit diet, with meals recorded in a food diary, and were provided with ongoing diet counseling and caloric adjustment according to weight loss “Intensive” patients were also given defined minimal weekly requirements for exercise and instructed to record their activities in an exercise diary that was then collected and reviewed by the Primary Care Provider. The Intensive program also included routine visits throughout the course of the study with a Dietitian and the Primary Care Provider in order to reinforce diet and behavior modification.
Patients in some groups (see Table 2, data Groups 2, 11, and 12) utilized meal replacement formulations. These individuals were given a diet sheet with a defined intake of daily calories ranging from 800-1600 kcal, or a 600 kcal deficit diet, with a meal replacement formulation taken once or twice daily instead of a food meal, and routine visits with a Primary Care Provider to reinforce diet and behavior modification, but relying primarily on patient self-monitoring.
The remainder of the patients (see Table 2, data Groups 3-11) also received daily doses of sibutramine at 10 mg/day (data Groups 3-7 and 11) or 15 mg/day (data Groups 8, 9, and 12). Individuals in data Groups 11 and 12 were given a diet sheet with a defined intake of daily calories ranging from 800-1600 kcal, or a 600 kcal deficit diet, with a meal replacement formulation (SlimFast®) taken once or twice daily instead of a food meal where applicable (see Table 2), and routine visits with a Primary Care Provider to reinforce diet and behavior modification, but relying primarily on patient self-monitoring. Patients in data Group 10 were placed on a 10 mg/day sibutramine and “Intensive” life style management regimen with no meal replacement.
In each of the studies, patients were monitored for weight loss over a 12- or 24-week period. The data groups ranged in size from 17 to 592 patients, and were placed on either a conventional diet with moderate lifestyle management program (data Group 1), or a diet including a meal replacement component including substitution of either one or two meals per day with a meal replacement formulation, as part of a moderate lifestyle management (data Group 2), or a conventional diet plus one daily dose of sibutramine (10 mg) with a moderate or intensive lifestyle management (data Groups 3-7 and 10), a conventional diet plus one daily dose of sibutramine (15 mg) with moderate lifestyle management (data Groups 8 and 9), and finally, a diet with one or two meal replacements (SlimFast®) plus one daily dose of sibutramine (10 mg) and moderate lifestyle management (data Group 11) or a diet with one or two meal replacements (SlimFast®) plus one daily dose of sibutramine (10 mg for 12 weeks followed by 15 mg for 12 weeks) (data Group 12).
All subjects received moderate or intensive lifestyle management training. […]

[2] = tested on: gastric and pancreatic lipase; settings: literature; cited from earlier work
[3] = data Groups 8 and 9: 15 mg sibutramine + moderate lifestyle management, 24 weeks

Structure (SMILES) | Mean Weight Change (kg) (LOCF*) ([1]; data Group 3: sibutramine 10 mg/day, moderate lifestyle management, 12 weeks) | weight loss (lower end of range, sibutramine only) ([1]; data Group 3 as worded in text: 10 mg sibutramine/day + moderate lifestyle management, latest observation to week 12) [kg] | Mean Weight Change (kg) (LOCF*) ([1]; data Group 4: sibutramine 10 mg/day, moderate lifestyle management, 12 weeks) | mean weight loss ([1]; data Group 5: 10 mg/day sibutramine + moderate lifestyle management, latest observation to week 12) [kg] | Mean Weight Change (kg) (LOCF*) ([1]; data Group 5: sibutramine 10 mg/day, moderate lifestyle management, 12 weeks) | Mean Weight Change (kg) (LOCF*) ([1]; data Group 6: sibutramine 10 mg/day, moderate lifestyle management, 12 weeks) | Mean Weight Change (kg) (LOCF*) ([1]; data Group 7: sibutramine 10 mg/day, moderate lifestyle management, 12 weeks) | Mean Weight Change (kg) (LOCF*) ([1]; data Group 8: sibutramine 15 mg/day, moderate lifestyle management, 24 weeks) | Mean Weight Change (kg) (LOCF*) ([1]; data Group 9: sibutramine 15 mg/day, moderate lifestyle management, 24 weeks) | weight loss (upper end of range, sibutramine only) ([1]; data Group 10: 10 mg sibutramine/day + intensive lifestyle management, latest observation to week 12) [kg] | Mean Weight Change (kg) (LOCF*) ([1]; data Group 10: sibutramine 10 mg/day, intensive lifestyle management, 12 weeks) | overall average weight loss of all groups ([1]; data Groups 3-7: 10 mg/day sibutramine, moderate lifestyle management, 12 weeks) [kg] | average weight loss [1, 3] [kg] | improvement of average weight loss by the higher 15 mg dose [1, 3] | fraction of the fat contained in a meal whose absorption is blocked [2]
CC(C)CC(N(C)C)C1(c2ccc(Cl)cc2)CCC1 (stereo not drawn) [sibutramine, N,N-dimethyl-1-[1-(4-chlorophenyl)cyclobutyl]-3-methylbutylamine] | -3.9 | 3.7 | -6.2 | 3.7 | -3.7 | -5 | -4.2 | -6.4 | -5.6 | 8.4 | -8.4 | 4.6 | 6.0 | approximately 25% | –
CCCCCCCCCCC[C@H](C[C@H]1OC(=O)[C@H]1CCCCCC)OC(=O)[C@@H](CC(C)C)NC=O [orlistat, (2S,3S,5S)-5-[(S)-2-formamido-4-methylvaleryloxy]-2-hexyl-3-hydroxyhexadecanoic acid lactone] | – | – | – | – | – | – | – | – | – | – | – | – | – | – | about one third
